Data from PubChem BioAssay (NCI).
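Test compounds were applied to cells in 96-well plates for 48 hours at 5 doses. The concentration for full growth arrest is given as TGI.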

Tests used:
Test in all cases: inhibition of tumour cell growth, NCI panel, 48 h
HOP-92 NSCLC = system: HOP-92 NSCLC
HL-60(TB) leukemia = system: HL-60(TB) leukemia
UACC-62 melanoma = system: UACC-62 melanoma
OVCAR-3 ovarian = system: OVCAR-3 ovarian
A498 renal = system: A498 renal
EKVX NSCLC = system: EKVX NSCLC
SW-620 colon = system: SW-620 colon
NCI-H460 lung = system: NCI-H460 lung
ACHN renal = system: ACHN renal
T-47D breast = system: T-47D breast
MDA-MB-231 breast = system: MDA-MB-231 breast
RPMI-8226 leukemia = system: RPMI-8226 leukemia

| Compound | TGI (HOP-92 NSCLC) [µM] | TGI (HL-60(TB) leukemia) [µM] | TGI (UACC-62 melanoma) [µM] | TGI (OVCAR-3 ovarian) [µM] | TGI (A498 renal) [µM] | TGI (EKVX NSCLC) [µM] | TGI (SW-620 colon) [µM] | TGI (NCI-H460 lung) [µM] | TGI (ACHN renal) [µM] | TGI (T-47D breast) [µM] | TGI (MDA-MB-231 breast) [µM] | TGI (RPMI-8226 leukemia) [µM] |
| --- | --- | --- | --- | --- | --- | --- | --- | --- | --- | --- | --- | --- |
| O=C1NC(=O)C(CCO)(c2ccccc2)C(=O)N1 | > 100 | > 100 | > 100 | > 100 | > 100 | > 100 | > 100 | > 100 | – | – | – | – |
| CC12CCC(C(=O)OC1=O)C2(C)C (stereo unspecified) | – | > 100 | > 100 | > 100 | > 100 | – | > 100 | > 100 | > 100 | > 100 | > 100 | > 100 |
| CC1(C)c2ccccc2C(=O)C12CCC(=O)CC2 | – | > 100 | > 100 | – | – | > 100 | > 100 | > 100 | > 100 | > 100 | > 100 | – |
| CC(=O)OCC1OC(Nc2ncc(-c3ccc(C)cc3)s2)C(OC(C)=O)C(OC(C)=O)C1OC(C)=O (stereo unspecified) | > 100 | 43.7 | > 77.2 | > 88.1 | > 100 | > 100 | > 100 | > 80.9 | – | – | – | 65.4 |
| C/C(=C1/CCCC2(N=NCC2c2ccccc2)C1=O)c1ccccc1 (stereo unspecified) | > 100 | 25.6 | 47.7 | 40.3 | – | > 100 | > 100 | > 100 | > 100 | – | – | > 100 |
| CNC(=S)N/N=C(C)\C(=N/NC(=S)NC)c1ccccc1 | – | – | > 100 | > 100 | – | > 100 | – | > 100 | > 100 | – | > 100 | – |
| Cc1ccc(C2CC(c3ccco3)=NN2c2ccccc2)o1 (stereo unspecified) | – | > 100 | > 100 | > 100 | – | > 100 | > 100 | > 100 | > 100 | – | – | > 100 |
| CCOC(=O)C(N=Nc1ccc(S(N)(=O)=O)cc1)C(C)=O (stereo unspecified) | > 100 | > 100 | > 100 | > 100 | > 100 | > 100 | > 100 | > 100 | > 100 | – | – | > 100 |
| CCN(CC)/C(Cl)=C(Cl)\C(=C1\Nc2ccc(OC)cc21)[N+](=O)[O-] | > 100 | > 100 | > 100 | 57.3 | > 100 | > 100 | > 100 | > 100 | > 100 | > 100 | > 100 | – |
| Cc1cn(C2CC(ON3C(=O)c4ccccc4C3=O)C(CO)O2)c(=O)[nH]c1=O (stereo unspecified) | > 10 | > 10 | > 10 | > 10 | – | > 10 | > 10 | > 10 | > 10 | – | – | – |
| CCN1CCN(c2ccc(Nc3ccnc4ccc5nn(C)nc5c34)cc2)CC1 | 26.5 | > 100 | 30.8 | 29.5 | – | – | 19.7 | 17.2 | 28 | – | – | > 100 |
| CSC1=C(SC)SC(=C2SC3=C(SC(=C4SCCS4)S3)S2)S1 | > 100 | > 100 | > 100 | > 100 | – | > 100 | > 100 | > 100 | > 100 | > 100 | > 100 | > 100 |
| COC(=O)C1OC(Oc2cc(O)c3c(=O)cc(-c4ccc(O)cc4)oc3c2)C(O)C(O)C1O (stereo unspecified) | > 100 | > 100 | > 100 | > 100 | > 100 | > 100 | > 100 | > 100 | – | – | – | > 100 |
| OCC1OC(n2cnc3c2NC=NC[C@H]3O)C(O)C1O (stereo partly specified) | > 414 | 284 | > 450 | > 450 | > 450 | > 450 | > 450 | > 450 | – | – | – | > 450 |
| C[C@]12CCC(=O)C=C1CC[C@@H]1C2CC[C@]2(C)c3nn(-c4ccc(F)cc4)nc3CC12 (stereo partly specified) | > 100 | > 100 | > 100 | > 100 | > 100 | > 100 | > 100 | > 100 | > 100 | > 100 | > 100 | – |
| CC(=O)Oc1ccccc1-c1cc2ccccc2oc1=O | – | > 100 | – | > 100 | > 100 | > 100 | > 100 | > 100 | > 100 | > 100 | > 100 | > 100 |
| COC(=O)C1=C(C)NC(C)=C(C(=O)OC)C1c1ccc(/[N+]([O-])=C/c2ccccc2)cc1 | 35.3 | 63.2 | > 100 | 34.4 | – | > 100 | 35.5 | > 100 | 32.7 | 40.6 | > 100 | > 100 |
| CCN1c2nc3ccccc3nc2N(CC)c2nc3ccccc3nc21 | – | > 100 | > 100 | > 100 | > 100 | > 100 | > 100 | > 100 | > 100 | – | > 100 | > 100 |
| CCOC(=O)c1nc2c(Cl)c3ncccc3cc2[nH]c1=O | > 100 | > 100 | 50.4 | > 100 | > 100 | > 100 | > 100 | 65.8 | > 100 | – | > 100 | – |
| Cc1ccc2nc(-c3ccc(N)c(I)c3)sc2c1 | 71.5 | 51 | > 100 | > 100 | 56 | > 100 | 57.8 | > 100 | > 100 | – | > 100 | – |
| O=C1C(Cl)C(c2ccccc2)N1n1cnc2ccccc2c1=O (stereo unspecified) | – | > 100 | > 100 | > 100 | – | > 100 | > 100 | > 100 | > 100 | – | – | > 100 |
| CC(C)CC1[C@@H](OCc2ccccc2)COS(=O)N1Cc1ccccc1 (stereo partly specified) | – | – | > 100 | > 100 | – | > 100 | > 100 | – | 96.2 | – | > 100 | 51 |
